Laboratory results taken from ChEMBL document CHEMBL4152313, “Design, synthesis and bioevaluation of 2-mercapto-6-phenylpyrimidine-4-carboxylic acid derivatives as potent xanthine oxidase inhibitors” (Eur J Med Chem, 2018).

Molecular target: Xanthine dehydrogenase/oxidase (Homo sapiens, UniProt P47989)
Assay: Inhibition of xanthine oxidase (unknown origin) using xanthine as substrate preincubated for 5 mins followed by substrate addition measured for 20 mins by spectrophotometric method

Xanthine dehydrogenase/oxidase, sequence (P47989 whole entry): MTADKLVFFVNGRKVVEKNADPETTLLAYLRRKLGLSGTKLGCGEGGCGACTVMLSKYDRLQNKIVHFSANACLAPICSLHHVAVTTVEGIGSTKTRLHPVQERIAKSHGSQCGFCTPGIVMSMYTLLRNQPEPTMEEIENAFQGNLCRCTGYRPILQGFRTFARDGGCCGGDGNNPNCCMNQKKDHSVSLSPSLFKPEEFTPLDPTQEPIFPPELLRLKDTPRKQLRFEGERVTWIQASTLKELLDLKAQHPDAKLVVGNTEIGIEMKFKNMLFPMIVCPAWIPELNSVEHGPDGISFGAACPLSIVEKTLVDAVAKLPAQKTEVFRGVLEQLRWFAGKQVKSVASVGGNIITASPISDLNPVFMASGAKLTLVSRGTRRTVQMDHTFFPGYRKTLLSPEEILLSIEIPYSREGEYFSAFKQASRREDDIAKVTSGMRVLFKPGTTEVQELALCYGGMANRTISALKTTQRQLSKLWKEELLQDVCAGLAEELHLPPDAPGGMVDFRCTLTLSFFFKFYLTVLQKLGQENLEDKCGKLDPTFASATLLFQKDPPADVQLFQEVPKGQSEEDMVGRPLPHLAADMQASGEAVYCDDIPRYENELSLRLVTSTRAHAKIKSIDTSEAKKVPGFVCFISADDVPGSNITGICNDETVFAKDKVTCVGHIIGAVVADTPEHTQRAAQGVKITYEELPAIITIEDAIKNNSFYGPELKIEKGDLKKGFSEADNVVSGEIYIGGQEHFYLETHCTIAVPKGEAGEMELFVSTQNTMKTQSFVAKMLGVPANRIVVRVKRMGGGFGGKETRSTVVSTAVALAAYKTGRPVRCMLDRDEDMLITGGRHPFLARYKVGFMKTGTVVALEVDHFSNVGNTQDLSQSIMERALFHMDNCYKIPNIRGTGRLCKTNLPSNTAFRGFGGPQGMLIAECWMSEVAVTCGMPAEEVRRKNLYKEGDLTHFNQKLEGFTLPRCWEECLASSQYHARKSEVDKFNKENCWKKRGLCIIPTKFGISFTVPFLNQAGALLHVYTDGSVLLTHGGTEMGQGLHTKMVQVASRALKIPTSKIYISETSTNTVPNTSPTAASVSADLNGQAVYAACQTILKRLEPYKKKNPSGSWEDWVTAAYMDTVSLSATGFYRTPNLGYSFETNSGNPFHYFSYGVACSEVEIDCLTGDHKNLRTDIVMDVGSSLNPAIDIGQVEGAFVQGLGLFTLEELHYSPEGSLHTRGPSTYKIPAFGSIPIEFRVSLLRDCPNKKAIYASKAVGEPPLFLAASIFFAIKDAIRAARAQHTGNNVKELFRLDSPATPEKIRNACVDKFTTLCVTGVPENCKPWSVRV

Cc1nc(-c2ccc(OCC(C)C)c(C#N)c2)sc1C(=O)O [FEBUXOSTAT]
IC50: 13 nM
